Results reported in ChEMBL document CHEMBL3396981, “Synthesis and in vitro biological evaluation of 2-(phenylcarbamoyl)phenyl 4-substituted benzoates” (Bioorg Med Chem, 2015).
Converted amounts (≈) assume the structure as drawn. Bridge positions count the residues as written; N and C are the ends. Square brackets hold non-standard residues; d marks the D form. Peptide text beside a SMILES is read from it. * marks the point of attachment. Ileψ(thiazoline)Cys = CC[C@H](C)[C@H](N)C1=N[C@H](C(=O)*)CS1; dOrn = NCCC[C@@H](N)C(=O)O

Experiments:
[1] = Selectivity index, ratio of IC50 for human HepG2 cells to MIC for atypical mycobacteria
[2] = Selectivity index, ratio of IC50 for human HepG2 cells to MIC for Mycobacterium tuberculosis; assay type: toxicity, cell-based; details: read-out: Selectivity Index
[3] = tested on: Mycobacterium tuberculosis; experiment: Antimycobacterial activity against Mycobacterium tuberculosis H37Rv 331/88 after 14 days by microdilution method; assay type: functional; details: H37Rv 331/88, 336 h
[4] = tested on: Mycobacterium kansasii; experiment: Antimycobacterial activity against Mycobacterium kansasii 6509/96 after 21 days by microdilution method; assay type: functional; details: 6509/96, 504 h
[5] = tested on: Mycobacterium kansasii; experiment: Antimycobacterial activity against Mycobacterium kansasii 6509/96 after 14 days by microdilution method; assay type: functional; details: 6509/96, 336 h
[6] = tested on: Mycobacterium kansasii; experiment: Antimycobacterial activity against Mycobacterium kansasii 6509/96 after 7 days by microdilution method; assay type: functional; details: 6509/96, 168 h
[7] = tested on: Mycobacterium avium; experiment: Antimycobacterial activity against INH,RIF,OFX,EMB-resistant Mycobacterium avium 330/88 after 14 days by microdilution method; assay type: functional; details: 330/88, 336 h
[8] = tested on: Mycobacterium avium; experiment: Antimycobacterial activity against INH,RIF,OFX,EMB-resistant Mycobacterium avium 330/88 after 21 days by microdilution method; assay type: functional; details: 330/88, 504 h
[9] = tested on: Mycobacterium kansasii; experiment: Antimycobacterial activity against Mycobacterium kansasii 235/80 after 7 days by microdilution method; assay type: functional; details: 235/80, 168 h
[10] = tested on: Mycobacterium tuberculosis; experiment: Antimycobacterial activity against Mycobacterium tuberculosis H37Rv 331/88 after 21 days by microdilution method; assay type: functional; details: H37Rv 331/88, 504 h
[11] = tested on: Mycobacterium kansasii; experiment: Antimycobacterial activity against Mycobacterium kansasii 235/80 after 14 days by microdilution method; assay type: functional; details: 235/80, 336 h
[12] = tested on: Mycobacterium kansasii; experiment: Antimycobacterial activity against Mycobacterium kansasii 235/80 after 21 days by microdilution method; assay type: functional; details: 235/80, 504 h
[13] = tested on: HepG2; experiment: Cytotoxicity against human HepG2 cells after 72 hrs by MTT assay; assay type: cell-based; details: HepG2, 72 h
[14] = tested on: HepG2; experiment: Cytostatic activity against human HepG2 cells after 72 hrs by MTT assay; assay type: functional, cell-based; details: HepG2, 72 h
[15] = tested on: Trichosporon asahii; experiment: Antifungal activity against Trichosporon asahii 1188 after 48 hrs by broth microdilution method; assay type: functional; details: Trichosporon asahii, 1188, 48 h
[16] = tested on: Trichosporon asahii; experiment: Antifungal activity against Trichosporon asahii 1188 after 24 hrs by broth microdilution method; assay type: functional; details: Trichosporon asahii, 1188, 24 h
[17] = tested on: Staphylococcus epidermidis; experiment: Antibacterial activity against Staphylococcus epidermidis H 6966/08 after 24 hrs by broth microdilution method; assay type: functional; details: H 6966/08, 24 h
[18] = tested on: Staphylococcus epidermidis; experiment: Antibacterial activity against Staphylococcus epidermidis H 6966/08 after 48 hrs by broth microdilution method; assay type: functional; details: H 6966/08, 48 h
[19] = tested on: Staphylococcus aureus; experiment: Antibacterial activity against methicillin-resistant Staphylococcus aureus H 5996/08 after 48 hrs by broth microdilution method; assay type: functional; details: H 5996/08, 48 h
[20] = tested on: Staphylococcus aureus; experiment: Antibacterial activity against Staphylococcus aureus CCM 4516/08 after 48 hrs by broth microdilution method; assay type: functional; details: CCM 4516/08, 48 h
[21] = tested on: Enterococcus sp.; experiment: Antibacterial activity against Enterococcus sp. J 14365/08 after 24 hrs by broth microdilution method; assay type: functional; details: J 14365/08, 24 h
[22] = tested on: Enterococcus sp.; experiment: Antibacterial activity against Enterococcus sp. J 14365/08 after 48 hrs by broth microdilution method; assay type: functional; details: J 14365/08, 48 h
[23] = tested on: Staphylococcus aureus; experiment: Antibacterial activity against methicillin-resistant Staphylococcus aureus H 5996/08 after 24 hrs by broth microdilution method; assay type: functional; details: H 5996/08, 24 h
[24] = tested on: Staphylococcus aureus; experiment: Antibacterial activity against Staphylococcus aureus CCM 4516/08 after 24 hrs by broth microdilution method; assay type: functional; details: CCM 4516/08, 24 h
[25] = Selectivity index, ratio of IC50 for human HepG2 cells to MIC for Staphylococci

Compound | Selectivity Index [1] | selectivity ratio [2] | MIC [3] [µM] | MIC [4] [µM] | MIC [5] [µM] | MIC [6] [µM] | MIC [7] [µM] | MIC [8] [µM] | MIC [9] [µM] | MIC [10] [µM] | MIC [11] [µM] | MIC [12] [µM] | IC50 [13] [µM] | IC50 [14] [µM] | also measured
Nc1ccc(C(=O)O)c(O)c1 [AMINOSALICYLIC ACID] | <2.2 | 35.8 | 62.5 (≈ 9.57 µg/mL) | 500 (≈ 76.6 µg/mL) | 125 (≈ 19.1 µg/mL) | 32 (≈ 4.9 µg/mL) | 32 (≈ 4.9 µg/mL) | 125 (≈ 19.1 µg/mL) | 125 (≈ 19.1 µg/mL) | 62.5 (≈ 9.57 µg/mL) | 1000 (≈ 153 µg/mL) | > 1000 |  |  | 
Cc1ccc(C(=O)Oc2ccc(Cl)cc2C(=O)Nc2ccc(Cl)c(Cl)c2)cc1 | >6.25 | > 50 | 1 (≈ 0.435 µg/mL) | 4 (≈ 1.74 µg/mL) | 4 (≈ 1.74 µg/mL) | 2 (≈ 0.869 µg/mL) | 8 (≈ 3.48 µg/mL) | 8 (≈ 3.48 µg/mL) | 1 (≈ 0.435 µg/mL) | 1 (≈ 0.435 µg/mL) | 2 (≈ 0.869 µg/mL) | 2 (≈ 0.869 µg/mL) | > 50 | 2.55 | 
O=C(Oc1ccc(Cl)cc1C(=O)Nc1ccc(C(F)(F)F)cc1)c1ccc(C(F)(F)F)cc1 |  |  | 1 (≈ 0.488 µg/mL) | 4 (≈ 1.95 µg/mL) | 2 (≈ 0.976 µg/mL) | 1 (≈ 0.488 µg/mL) | 1 (≈ 0.488 µg/mL) | 4 (≈ 1.95 µg/mL) | 1 (≈ 0.488 µg/mL) | 1 (≈ 0.488 µg/mL) | 2 (≈ 0.976 µg/mL) | 4 (≈ 1.95 µg/mL) |  |  | 
O=C(Oc1ccc(Cl)cc1C(=O)Nc1ccc(Cl)c(Cl)c1)c1ccc(C(F)(F)F)cc1 |  |  | 1 (≈ 0.489 µg/mL) | 4 (≈ 1.95 µg/mL) | 2 (≈ 0.977 µg/mL) | 1 (≈ 0.489 µg/mL) | 4 (≈ 1.95 µg/mL) | 4 (≈ 1.95 µg/mL) | 1 (≈ 0.489 µg/mL) | 1 (≈ 0.489 µg/mL) | 2 (≈ 0.977 µg/mL) | 4 (≈ 1.95 µg/mL) |  |  | 
O=C(Nc1ccc(C(F)(F)F)cc1)c1cc(Cl)ccc1O |  |  | 2 (≈ 0.631 µg/mL) | 2 (≈ 0.631 µg/mL) | 2 (≈ 0.631 µg/mL) | 2 (≈ 0.631 µg/mL) | 8 (≈ 2.53 µg/mL) | 8 (≈ 2.53 µg/mL) | 1 (≈ 0.316 µg/mL) | 2 (≈ 0.631 µg/mL) | 2 (≈ 0.631 µg/mL) | 2 (≈ 0.631 µg/mL) |  |  | 
OC(Cn1cncn1)(Cn1cncn1)c1ccc(F)cc1F [FLUCONAZOLE] |  |  |  |  |  |  |  |  |  |  |  |  |  |  | MIC [15]: 9 µM (≈ 2.76 µg/mL); MIC [16]: 4 µM (≈ 1.23 µg/mL)
O=C(Oc1ccc(Cl)cc1C(=O)Nc1ccc(C(F)(F)F)cc1)c1ccccc1 |  |  | 0.5 (≈ 0.21 µg/mL) | 2 (≈ 0.84 µg/mL) | 2 (≈ 0.84 µg/mL) | 2 (≈ 0.84 µg/mL) | 4 (≈ 1.68 µg/mL) | 4 (≈ 1.68 µg/mL) | 1 (≈ 0.42 µg/mL) | 1 (≈ 0.42 µg/mL) | 1 (≈ 0.42 µg/mL) | 1 (≈ 0.42 µg/mL) |  |  | 
Cc1ccc(C(=O)Oc2ccc(Cl)cc2C(=O)Nc2ccc(C(F)(F)F)cc2)cc1 | >12.5 | > 100 | 0.5 (≈ 0.217 µg/mL) | 2 (≈ 0.868 µg/mL) | 2 (≈ 0.868 µg/mL) | 1 (≈ 0.434 µg/mL) | 4 (≈ 1.74 µg/mL) | 4 (≈ 1.74 µg/mL) | 1 (≈ 0.434 µg/mL) | 0.5 (≈ 0.217 µg/mL) | 1 (≈ 0.434 µg/mL) | 2 (≈ 0.868 µg/mL) | > 50 | 6.9 | MIC [15]: > 250 µM; MIC [17]: > 250 µM; MIC [18]: > 250 µM; MIC [19]: > 250 µM; MIC [20]: > 250 µM; MIC [16]: > 250 µM; MIC [21]: > 250 µM; MIC [22]: > 250 µM; MIC [23]: > 250 µM; MIC [24]: > 250 µM
O=C(Oc1ccc(Br)cc1C(=O)Nc1ccc(C(F)(F)F)cc1)c1ccc([N+](=O)[O-])cc1 | >25 | > 100 | 0.5 (≈ 0.255 µg/mL) | 1 (≈ 0.509 µg/mL) | 0.5 (≈ 0.255 µg/mL) | 0.5 (≈ 0.255 µg/mL) | 1 (≈ 0.509 µg/mL) | 2 (≈ 1.02 µg/mL) | 0.5 (≈ 0.255 µg/mL) | 0.5 (≈ 0.255 µg/mL) | 1 (≈ 0.509 µg/mL) | 1 (≈ 0.509 µg/mL) | > 50 | 1.25 | 
CC[C@H](C)[C@H](N)C1=N[C@H](C(=O)N[C@@H](CC(C)C)C(=O)N[C@H](CCC(=O)O)C(=O)N[C@H](C(=O)N[C@H]2CCCCNC(=O)[C@H](CC(N)=O)NC(=O)[C@@H](CC(=O)O)NC(=O)[C@H](Cc3cnc[nH]3)NC(=O)[C@@H](Cc3ccccc3)NC(=O)[C@H]([C@@H](C)CC)NC(=O)[C@@H](CCCN)NC2=O)[C@@H](C)CC)CS1 [BACITRACIN] ({Ileψ(thiazoline)Cys}-L[dE]IK[dOrn]I[dF]H[dD]N; lactam 4-C) |  |  |  |  |  |  |  |  |  |  |  |  | 255 |  | MIC [17]: 15.6 µM (≈ 22.2 µg/mL); Selectivity Index [25]: 8.1; MIC [18]: 31.2 µM (≈ 44.5 µg/mL); MIC [19]: 15.6 µM (≈ 22.2 µg/mL); MIC [20]: 15.6 µM (≈ 22.2 µg/mL); MIC [21]: 15.6 µM (≈ 22.2 µg/mL); MIC [22]: 62.5 µM (≈ 88.9 µg/mL); MIC [23]: 15.6 µM (≈ 22.2 µg/mL); MIC [24]: 7.81 µM (≈ 11.1 µg/mL)
